In ChEMBL document CHEMBL6103669, “Is a Fungal Apocalypse Inevitable or Just a Hallucination? An Overview of the Antifungal Armamentarium Used in the Fight against Pathogenic Fungi” (ACS Med Chem Lett, 2025):
≈ marks a conversion by molar mass, not a printed value. One block for each compound: values may come before it.

Key:
[1] = test system: Cryptococcus neoformans; assay: Antifungal activity against Cryptococcus neoformans H99 assessed as fungal growth inhibition measured after 48 hrs by resazurin assay; format: functional
[2] = test system: Candida albicans; assay: Antifungal activity against fluconazole-resistant Candida albicans 901 assessed as inhibition of fungal growth; format: functional
[3] = test system: Candida tropicalis; assay: Antifungal activity against Candida tropicalis 5008 assessed as reduction in fungal growth; format: functional
[4] = test system: Candida tropicalis; assay: Antifungal activity against Candida tropicalis 3890 assessed as reduction in fungal growth; format: functional
[5] = test system: Cryptococcus neoformans; assay: Antifungal activity against Cryptococcus neoformans H99; format: functional
[6] = test system: Candida albicans; assay: Antifungal activity against fluconazole-resistant Candida albicans 904 assessed as reduction in fungal growth by NCCLS method; format: functional
[7] = biological target: T1, Sterol 24-C-methyltransferase (Candida albicans (strain SC5314 / ATCC MYA-2876) (Yeast), UniProt O74198); assay: Inhibition of N-terminal His-tagged Candida albicans SC5314 Erg6 extracted from Escherichia coli BL21 (DE3) methyltransferase activity using zymosterol as substrate pre-incubated for 15 mins followed by substrate addition by liquid scintillation counter analysis
T1 sequence (O74198 whole entry): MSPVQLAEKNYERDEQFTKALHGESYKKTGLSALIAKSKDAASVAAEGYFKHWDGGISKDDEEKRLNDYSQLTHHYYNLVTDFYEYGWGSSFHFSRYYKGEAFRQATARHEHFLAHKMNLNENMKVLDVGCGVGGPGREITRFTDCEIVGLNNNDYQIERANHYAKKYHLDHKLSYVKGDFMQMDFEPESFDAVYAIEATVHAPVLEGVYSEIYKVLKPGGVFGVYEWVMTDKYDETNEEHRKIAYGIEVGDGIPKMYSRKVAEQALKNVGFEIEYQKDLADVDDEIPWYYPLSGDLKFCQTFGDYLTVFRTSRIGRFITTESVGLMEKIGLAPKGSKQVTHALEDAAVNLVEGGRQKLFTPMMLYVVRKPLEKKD

[8] = biological target: T1, Sterol 24-C-methyltransferase; assay: Inhibition of Candida albicans SC5314 Erg6

Compound: Clc1ccc(N/N=C(\c2ccccc2)c2ccccn2)nc1
MIC50 [1]: 0.5 µg/mL (≈ 1.62 µM) | MIC50 [2]: 0.5 µg/mL (≈ 1.62 µM)

Compound: O=C(CCCCCCCOc1ccc(CN2CCN(CC(O)(Cn3cncn3)c3ccc(F)cc3F)CC2)cc1)NO (centres undefined)
MIC80 [3]: 0.5 µg/mL (≈ 0.852 µM) | MIC80 [4]: 0.5 µg/mL (≈ 0.852 µM) | MIC80 [5]: 0.5 µg/mL (≈ 0.852 µM)

Compound: COc1cc2c(cc1-c1c(C)noc1C)[nH]c1ncnc(NCCCCCCC(=O)NO)c12
MIC80 [5]: 8 µg/mL (≈ 17.7 µM) | MIC80 [6]: 0.5 µg/mL (≈ 1.1 µM)

IC50 [7]: 0.58 µM
Compound: Cc1c(-n2c(-c3ccc(Br)cc3)cs/c2=N\c2ccccc2)c(=O)n(-c2ccccc2)n1C

IC50 [8]: 11.6 µM
Compound: C=C(CC[C@@H](CO)[C@H]1CC[C@@]2(C)C3=C(CC[C@]12C)[C@@]1(C)CC[C@@H](OC(=O)C[C@@](C)(O)CC(=O)O)C(C)(C)[C@@H]1CC3)[C@H](C)C(=O)O
